Here are results for 3 compounds from ChEMBL document CHEMBL1949671, “Design and synthesis of estrogen receptor degradation inducer based on a protein knockdown strategy” (Bioorg Med Chem Lett, 2012).

Structures are written as SMILES. The source made the active and inactive calls. The calls are words filed in the database; no cut-off is given here.

Experiment [1] deals with T1, Baculoviral IAP repeat-containing protein 2/Estrogen receptor (Homo sapiens) (UniProt P03372+Q13490). In words: Binding affinity to cIAP1/ERalpha in human MCF7 cells assessed as proteasomal degradation of ERalpha at 10 to 30 uM after 6 hrs by Western blot analysis. In kind it is cell-based. For orientation: Immunoblotting shows a protein as a band on a membrane.
For experiment [2], the target named is T1, Baculoviral IAP repeat-containing protein 2/Estrogen receptor (Homo sapiens). The experiment is described as follows: Binding affinity to cIAP1/ERalpha in human MCF7 cells assessed as proteasomal degradation of ERalpha after 6 hrs by Western blot analysis in presence of proteasome inhibitor MG132. In kind it is cell-based.

For the compound `CCC(=C(c1ccc(O)cc1)c1ccc(OCCN(C)C(=O)CCCCNC(=O)[C@H](CC(C)C)NC(=O)[C@@H](O)[C@H](N)Cc2ccccc2)cc1)c1ccccc1`, in experiment [1], the result was Active. The outcome in experiment [2] was inactive.
On to `CCC(=C(c1ccc(O)cc1)c1ccc(OCCN(C)C(=O)CCNC(=O)[C@H](CC(C)C)NC(=O)[C@@H](O)[C@H](N)Cc2ccccc2)cc1)c1ccccc1`, for which, in experiment [1], the outcome was Active. In addition, the outcome in experiment [2] was inactive.
The like results for `CCC(=C(c1ccc(O)cc1)c1ccc(OCCN(C)C(=O)CCCCCCNC(=O)[C@H](CC(C)C)NC(=O)[C@@H](O)[C@H](N)Cc2ccccc2)cc1)c1ccccc1` were, in that order, “Active” and “inactive”.
